Reference: paper PMC4457802 (PLoS ONE, 2015)
Where two headings read alike, the source gives them in different places.

Columns and labels:
Streptococcus pneumoniae = test: Time killing assay; type: cell-based; conditions: 1×MIC; for time to totally eliminate resistant strain: failed up to 240 min of treatment; for time to eradicate susceptible pneumococcal isolate / time to completely kill 10^6 CFU/ml of S. pneumoniae: MHB, 37°C, triplicate; for time to completely kill 10^6 CFU/ml of S. pneumoniae: sampled every 30 min to 240 min
Description: The bactericidal activities of peptides were performed as described previously. […] 10μl of bacterial suspensions were removed at various time intervals (30, 60, 90, 120, 150, 180, 210, and 240 min), serially diluted in PBS and plated onto Columbia agar with 5% sheep blood for 20-24hr at 37°C in the presence of 5% CO2 to obtain viable colonies. Erythromycin and ceftriaxone were used as positive control and the assay was performed in triplicate.

S. aureus ATCC 25923 = type: cell-based, Staphylococcus aureus; conditions: for MIC S. aureus ATCC 25923, in parentheses: numbers in parentheses are micromolar concentrations
From the text: (§1) Thirty (30) Pneumococcal clinical isolates were obtained from University of Malaya Medical Centre (UMMC). For broad-spectrum activity of AMPs, E. coli ATCC 25922, Staphylococcus aureus ATCC 25923, P. aeruginosa ATCC 15442, Acinetobacter baumanii ATCC 15308, and one clinical isolate of each methicillin resistant S. aureus (MRSA), […], citrobacter spp., and K. pneumoniae were used in this study.
(§2) The minimum inhibitory concentration (MIC) of the peptides against 30 pneumococcal isolates was determined by broth microdilution protocol as indicated by the CLSI guidelines (Clinical and Laboratory Standards Institute). Briefly, bacterial strains were grown for 18–24 hr at 37°C under 5% CO2. Direct suspension of the colonies were made in cationically-adjusted Müeller-Hinton broth (CAMHB) and adjusted to OD 625 0.08–0.1 which corresponds to 1 ~ 2 x10^8 CFU/ml followed by serial ten-fold dilutions to give 1x10^6 CFU/ml. 50μl of bacterial suspension were added to 96-well round bottom microtiter plates containing equal volume of peptides at different concentrations (1.95, 3.90, 7.81, 15.62, 31.25, 62.5, 125, 250μg/ml) and the 96-well plates were incubated for 20-24hr at 37°C in the presence of 5% CO2.

[1] = test system: S. pneumoniae (30 clinical isolates); type: cell-based, Streptococcus pneumoniae; conditions: for MIC S. pneumoniae (30 clinical isolates), in parentheses: numbers in parentheses are micromolar concentrations; for MIC S. pneumoniae (30 clinical isolates): broth microdilution, CAMHB, 20-24hr, 37°C, 5% CO2, lowest concentration that completely inhibits growth
From the text: as §1, §2

Enterococcus cloacae = type: cell-based; conditions: numbers in parentheses are micromolar concentrations
From the text: as §1, §2

P. aeruginosa ATCC 15442 = type: cell-based; conditions: numbers in parentheses are micromolar concentrations
From the text: as §1, §2

citrobacter spp = type: cell-based; conditions: numbers in parentheses are micromolar concentrations
From the text: as §1, §2

K. pneumoniae = type: cell-based; conditions: numbers in parentheses are micromolar concentrations
From the text: as §1, §2

[2] = test system: Methicillin resistant S. aureus (MRSA); type: cell-based; conditions: numbers in parentheses are micromolar concentrations
From the text: as §1, §2

[3] = test system: Acinetobacter baumanii ATCC 15308; type: cell-based; conditions: numbers in parentheses are micromolar concentrations
From the text: as §1, §2

E. coli ATCC 25922 = type: cell-based; conditions: numbers in parentheses are micromolar concentrations
From the text: as §1, §2

[4] = test system: WRL-68 normal liver cell line; type: cell-based, human
Description: (§3) CellTiter 96 AQueous Non-Radioactive Cell Proliferation assay (Promega, USA) was used to evaluate the cytotoxic effects of peptides. WRL-68 (ATCC CL-48) and NL-20 (ATCC CRL2503) cell lines were purchased from American Type Culture Collection (ATCC, USA). The cell lines were grown in Dulbecco's modified Eagle's medium (DMEM) and Ham’s F-12 medium, respectively. Cells were supplemented with 10% (v/v) fetal bovine serum (FBS) in T75 flasks and incubated at 37°C in the presence of 5% CO2. Cells were seeded into 96-well plates at a density of 1×10^4 and 3×10^4 cells per well, respectively. Peptides were added to the wells at different concentrations (1.95, 3.90, 7.81, 15.62, 31.25, 62.5, 125, and 250μg) and plates were incubated at 37°C under 5% CO2 for 24, 48, and 72 hrs. Medium with and without cells was used as positive and negative controls, respectively. After incubation, 20μl of the reagent were added to each well and incubated for 1 hr at 37°C under 5% CO2. Metabolically active cells convert the yellow MTS to purple formazan, allowing for monitoring of the reaction. The absorbance was monitored at 490 nm using GloMax Multi Detection System (Promega, USA). The percentage of viable cells was calculated according to the following formula: 100 (AT-AB/AC-AB), where AT and AC are the absorbance of treated and control cells (100% survival). AB is the absorbance of medium alone. The assay was done in triplicate.

[5] = test system: NL-20 normal lung cell line; type: cell-based, human
Description: as §3

Compound	MIC S. aureus ATCC 25923, in parentheses (S. aureus ATCC 25923; unit of the source corrected)	MIC S. pneumoniae (30 clinical isolates), in parentheses ([1]; unit of the source corrected)	MIC Enterococcus cloacae, in parentheses (Enterococcus cloacae)	MIC P. aeruginosa ATCC 15442, in parentheses (P. aeruginosa ATCC 15442)	MIC citrobacter spp, in parentheses (citrobacter spp)	MIC K. pneumoniae, in parentheses (K. pneumoniae)	MIC MRSA, in parentheses ([2]; unit of the source corrected)	MIC Acinetobacter baumanii ATCC 15308, in parentheses [3]	MIC E. coli ATCC 25922, in parentheses (E. coli ATCC 25922; unit of the source corrected)	time to completely kill 10^6 CFU/ml of S. pneumoniae (Streptococcus pneumoniae)	MIC S. pneumoniae (30 clinical isolates) [1]	MIC P. aeruginosa ATCC 15442, in parentheses (P. aeruginosa ATCC 15442; unit of the source corrected)	also measured
CO/N=C(\C(=O)N[C@@H]1C(=O)N2C(C(=O)O)=C(CSc3nc(=O)c(=O)[nH]n3C)CS[C@H]12)c1csc(N)n1 [ceftriaxone, reference compound]	–	–	–	–	–	–	–	–	–	–	–	–	time to totally eliminate resistant strain (Streptococcus pneumoniae): > 240 min; time to eradicate susceptible pneumococcal isolate (Streptococcus pneumoniae): 150 min
CC[C@H]1OC(=O)[C@H](C)[C@@H](O[C@H]2C[C@@](C)(OC)[C@@H](O)[C@H](C)O2)[C@H](C)[C@@H](O[C@@H]2O[C@H](C)C[C@H](N(C)C)[C@H]2O)[C@](C)(O)C[C@@H](C)C(=O)[C@H](C)[C@@H](O)[C@]1(C)O [erythromycin, reference compound]	–	–	–	–	–	–	–	–	–	–	–	–	time to totally eliminate resistant strain (Streptococcus pneumoniae): > 240 min; time to eradicate susceptible pneumococcal isolate (Streptococcus pneumoniae): 120 min
FLGGLIKIVPAMICAVRKKC-OH [RN1, ranalexin analog]	125 µg/mL	250 µg/mL	>250 (>115.7) micromolar	>250 (>115.7) micromolar	>250 (>115.7) micromolar	>250 (>115.7) micromolar	250 µg/mL	>250 (>115.7) micromolar	250 µg/mL	–	–	–	–
FLGGLIKKWPWWPWRR-NH2 [RN7-IN9, hybrid peptide of ranalexin and indolicidin]	7.81 µg/mL	7.81 to 15.6 µg/mL	>250 (>117) micromolar	–	>250 (>117) micromolar	>250 (>117) micromolar	7.81 µg/mL	31.25 (14.7) micromolar	7.81 µg/mL	≤ 150 min	7.81 to 15.62 µg/mL	31.2 µg/mL	concentration at which toxic, WRL-68 [4]: ≥ 62.5 µg/mL; concentration at which toxic, NL-20 [5]: ≥ 125 µg/mL
FLGGLIKPVPAMICAVRKKC-OH [RN2, ranalexin analog]	–	–	>250 (>116) micromolar	>250 (>116) micromolar	>250 (>116) micromolar	>250 (>116) micromolar	–	>250 (>116) micromolar	–	–	–	–	MIC S. aureus ATCC 25923, in parentheses (S. aureus ATCC 25923): >250 (>116) micromolar; MIC S. pneumoniae (30 clinical isolates), in parentheses [1]: >250 (>116) micromolar; MIC MRSA, in parentheses [2]: >250 (>116) micromolar; MIC E. coli ATCC 25922, in parentheses (E. coli ATCC 25922): >250 (>116) micromolar
FLGGLIKPWWPWRR-NH2 [RN7-IN7, hybrid peptide of ranalexin and indolicidin]	31.2 µg/mL	31.2 to 62.5 µg/mL	>250 (>138) micromolar	–	>250 (>138) micromolar	>250 (>138) micromolar	31.2 µg/mL	125 (69) micromolar	31.2 µg/mL	120 min	31.25 to 62.5 µg/mL	62.5 µg/mL	–
FLGGLIKRPPAMICAVRKKC-OH [RN4, ranalexin analog]	–	–	>250 (>113) micromolar	>250 (>113) micromolar	>250 (>113) micromolar	>250 (>113) micromolar	–	>250 (>113) micromolar	–	–	–	–	MIC S. aureus ATCC 25923, in parentheses (S. aureus ATCC 25923): >250 (>113) micromolar; MIC S. pneumoniae (30 clinical isolates), in parentheses [1]: >250 (>113) micromolar; MIC MRSA, in parentheses [2]: >250 (>113) micromolar; MIC E. coli ATCC 25922, in parentheses (E. coli ATCC 25922): >250 (>113) micromolar
FLGGLIKRVPAMICAVRKKC-OH [RN3, ranalexin analog]	–	–	>250 (>113) micromolar	>250 (>113) micromolar	>250 (>113) micromolar	>250 (>113) micromolar	–	>250 (>113) micromolar	–	–	–	–	MIC S. aureus ATCC 25923, in parentheses (S. aureus ATCC 25923): >250 (>113) micromolar; MIC S. pneumoniae (30 clinical isolates), in parentheses [1]: >250 (>113) micromolar; MIC MRSA, in parentheses [2]: >250 (>113) micromolar; MIC E. coli ATCC 25922, in parentheses (E. coli ATCC 25922): >250 (>113) micromolar
LLPWKWPWWKWRR-NH2 [IN1, indolicidin analog]	31.2 µg/mL	31.2 to 62.5 µg/mL	>250 (>129) micromolar	–	>250 (>129) micromolar	>250 (>129) micromolar	31.2 µg/mL	>250 (129) micromolar	31.2 µg/mL	210 min	31.25 to 62.5 µg/mL	31.2 µg/mL	–
RLPWRWPRRPWRR-NH2 [IN4, indolicidin analog]	–	250 µg/mL	>250 (>130.4) micromolar	–	>250 (>130.4) micromolar	>250 (>130.4) micromolar	250 µg/mL	>250 (>130.4) micromolar	250 µg/mL	–	> 250 µg/mL	125 µg/mL	MIC S. aureus ATCC 25923 (S. aureus ATCC 25923; broth microdilution): 125 µg/mL
RRPWRWPRWPWRR-NH2 [IN3, indolicidin analog]	31.2 µg/mL	62.5 µg/mL	>250 (>125) micromolar	–	>250 (>125) micromolar	>250 (>125) micromolar	62.5 µg/mL	>250 (>125) micromolar	31.2 µg/mL	150 min	–	31.2 µg/mL	–
RRPWRWPWWPWRR-NH2 [IN2, indolicidin analog]	31.2 µg/mL	31.2 to 62.5 µg/mL	>250 (>123) micromolar	–	>250 (>123) micromolar	>250 (>123) micromolar	31.2 µg/mL	>250 (>123) micromolar	31.2 µg/mL	210 min	31.25 to 62.5 µg/mL	31.2 µg/mL	–
